IC50 data for 15 molecules are collected here from patent US10821115B2, “Compounds that inhibit Mcl-1 protein” (priority 2017, dated 2020).

Like-named read-outs stand apart in the source and are kept apart here.

A word on the IC50: it is the point on the concentration scale where inhibition reaches its midpoint.

The test system of assay [1] is human multiple myeloma cell line, OPM-2. In words: Cell viability assay (OPM-2 10 FBS), CellTiter-Glo. Format: cell-based. In outline: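 OPM-2 cells at 3000 cells/well in RPMI 1640 with 10% FBS were exposed to serially diluted compounds for 16 h at 37 °C, 5% CO2.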
Assay [2] deals with recombinant human Mcl-1 (residues 171-327) / Bim interaction (Homo sapiens (Human), UniProt Q07820). In words: biochemical. Format: binding. The settings on record: read-out: Mcl-1 HTRF IC50.
The mark [3] stands for this setting: Homo sapiens, OPM-2, 16 h, read-out: OPM-2 10% FBS IC50 IP, OPM-2 cells, 10% FBS, 16 h incubation.
Setting [4] is: 0.1 nM Mcl-1(171-327), 0.05 nM biotin-Bim (51-76).
Setting [5] is: Homo sapiens, OPM-2, 16 h, read-out: OPM-2 10% FBS IC50 IP, OPM-2 cells, 10% FBS, 16 h, CellTiter-Glo.
[6] abbreviates: TR-FRET, Mcl-1(171-327) / biotin-Bim (51-76).
[7] abbreviates: read-out: OPM-2 10% FBS IC50 IP, OPM-2 cells, 10% FBS, 16 h, CellTiter-Glo.

Chain of recombinant human Mcl-1 (residues 171-327) / Bim interaction (Q07820 171-327): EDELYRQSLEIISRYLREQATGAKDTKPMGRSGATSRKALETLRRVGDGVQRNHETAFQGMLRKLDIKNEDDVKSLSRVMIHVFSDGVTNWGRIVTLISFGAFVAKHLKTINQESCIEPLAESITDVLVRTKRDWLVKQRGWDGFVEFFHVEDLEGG

In the case of `CO[C@@]1(CN2CCN(c3nccs3)CC2)/C=C/C[C@H](C)[C@@H](C)S(=O)(=O)NC(=O)c2ccc3c(c2)N(C[C@@H]2CC[C@H]21)C[C@@]1(CCCc2cc(Cl)ccc21)CO3` [Example 255, (1S,3′R,6′R,7′S,8′E,11′S,12′R)-6-chloro-7′-methoxy-11′,12′-dimethyl-7′-((4-(1,3-thiazol-2-yl)-1-piperazinyl)methyl)-3,4-dihydro-2H,15′H-spiro[naphthalene-1,22′-[20]oxa[13]thia[1,14]diazatetracyclo [14.7.2.0~3,6~.0~19,24~]pentacosa[8,16,18,24]tetraen]-15′-one 13′,13′-dioxide], the results for the IC50 in assay [1] (setting [3]) and in assay [2] (setting [4]) were 1480 nM and 1.74 nM, respectively.
On to `C[C@@H]1[C@@H](C)C/C=C/[C@](O)(c2ncnn2C)[C@@H]2CC[C@H]2CN2C[C@@]3(CCCc4cc(Cl)ccc43)COc3ccc(cc32)C(=O)NS1(=O)=O` [Example 100221, (1S,3′R,6′R,7′R,8′E,11′S,12′R)-6-chloro-7′-hydroxy-11′,12′-dimethyl-7′-(1-methyl-1H-1,2,4-triazol-5-yl)-3,4-dihydro-2H,15′H-spiro[naphthalene-1,22′-[20]oxa[13]thia[1,14]diazatetracyclo [14.7.2.0~3,6~.0~19,24~]pentacosa[8,16,18,24]tetraen]-15′-one 13′,13′-dioxide], for which the IC50 in assay [1] (setting [5]) is 776 nM; in assay [2] (setting [6]) it was 0.525 nM.
For `C[C@@H]1[C@@H](C)C[C@@H](N(C)C)C[C@](C)(O)[C@@H]2CC[C@H]2CN2C[C@@]3(CCCc4cc(Cl)ccc43)COc3ccc(cc32)C(=O)NS1(=O)=O` [Example 100063, (1S,3′R,6′R,7′S,9′R,11′S,12′R)-6-chloro-9′-(dimethylamino)-7′-hydroxy-7′,11′,12′-trimethyl-3,4-dihydro-2H,15′H-spiro[naphthalene-1,22′-[20]oxa[13]thia[1,14]diazatetracyclo [14.7.2.0~3,6~.0~19,24~]pentacosa[16,18,24]trien]-15′-one 13′,13′-dioxide], in that order: 2260 nM and 2.32 nM.
Taken in the same sequence, the figures for `CO[C@@]1(c2nccn2C)CCC[C@H](C)[C@@H](C)S(=O)(=O)NC(=O)c2ccc3c(c2)N(C[C@@H]2CC[C@H]21)C[C@@]1(CCCc2cc(Cl)ccc21)CO3` [Example 100230, (1S,3′R,6′R,7′S,11′S,12′R)-6-chloro-7′-methoxy-11′,12′-dimethyl-7′-(1-methyl-1H-imidazol-2-yl)-3,4-dihydro-2H,15′H-spiro[naphthalene-1,22′-[20]oxa[13]thia[1,14]diazatetracyclo [14.7.2.0~3,6~.0~19,24~]pentacosa[16,18,24]trien]-15′-one 13′,13′-dioxide] were 544 nM and 0.473 nM.
For `Cc1onc(C[C@]2(O)/C=C/C[C@H](C)[C@@H](C)S(=O)(=O)NC(=O)c3ccc4c(c3)N(C[C@@H]3CC[C@H]32)C[C@@]2(CCCc3cc(Cl)ccc32)CO4)c1C` [Example 100578, (1S,3′R,6′R,7′S,8′E,11′S,12′R)-6-chloro-7′-((4,5-dimethyl-1,2-oxazol-3-yl)methyl)-7′-hydroxy-11′,12′-dimethyl-3,4-dihydro-2H,15′H-spiro[naphthalene-1,22′-[20]oxa[13]thia[1,14]diazatetracyclo [14.7.2.0~3,6~.0~19,24~]pentacosa[8,16,18,24]tetraen]-15′-one 13′,13′-dioxide], in that order: 595 nM and 0.089 nM.
For the molecule `C[C@@H]1[C@@H](C)C/C=C/[C@@](O)(C(F)F)[C@@H]2CC[C@H]2CN2C[C@@]3(CCCc4cc(Cl)ccc43)COc3ccc(cc32)C(=O)NS1(=O)=O` [Example 100069, (1S,3′R,6′R,7′S,8′E,11′S,12′R)-6-chloro-7′-(difluoromethyl)-7′-hydroxy-11′,12′-dimethyl-3,4-dihydro-2H,15′H-spiro[naphthalene-1,22′-[20]oxa[13]thia[1,14]diazatetracyclo [14.7.2.0~3,6~.0~19,24~]pentacosa[8,16,18,24]tetraen]-15′-one 13′,13′-dioxide], the IC50 in assay [1] (setting [7]) amounted to 250 nM; in assay [2] (setting [6]), 0.457 nM.
Taken in the same sequence, the figures for `C[C@@H]1[C@@H](C)C/C=C/[C@@](O)(C#CCCN(C)C)[C@@H]2CC[C@H]2CN2C[C@@]3(CCCc4cc(Cl)ccc43)COc3ccc(cc32)C(=O)NS1(=O)=O` [Example 100309, (1S,3′R,6′R,7′S,8′E,11′S,12′R)-6-chloro-7′-(4-(dimethylamino)-1-butyn-1-yl)-7′-hydroxy-11′,12′-dimethyl-3,4-dihydro-2H,15′H-spiro[naphthalene-1,22′-[20]oxa[13]thia[1,14]diazatetracyclo [14.7.2.0~3,6~.0~19,24~]pentacosa[8,16,18,24]tetraen]-15′-one 13′,13′-dioxide] were 385 nM and 0.244 nM.
For the molecule `COCC[C@@H]1[C@@H](C)C/C=C/[C@](C=O)(OC)[C@@H]2CC[C@H]2CN2C[C@@]3(CCCc4cc(Cl)ccc43)COc3ccc(cc32)C(=O)NS1(=O)=O` [Example 100520, (1S,3′R,6′R,7′S,8′E,11′S,12′R)-6-chloro-7′-methoxy-12′-(2-methoxyethyl)-11′-methyl-15′-oxo-3,4-dihydro-2H-spiro[naphthalene-1,22′-[20]oxa[13]thia[1,14]diazatetracyclo [14.7.2.0~3,6~.0~19,24~]pentacosa[8,16,18,24]tetraene]-7′-carbaldehyde 13′,13′-dioxide], the concentration for half-maximal inhibition (IC50) in assay [1] (setting [5]) was 1690 nM; in assay [2] (setting [6]), 0.549 nM.
Regarding `COC[C@]1(O)/C=C/C[C@H](C)[C@@H](C)S(=O)(=O)NC(=O)c2ccc3c(c2)N(C[C@@H]2CC[C@H]21)C[C@@]1(CCCc2cc(Cl)ccc21)CO3` [Example 100378, (1S,3′R,6′R,7′S,8′E,11′S,12′R)-6-chloro-7′-hydroxy-7′-(methoxymethyl)-11′,12′-dimethyl-3,4-dihydro-2H,15′H-spiro[naphthalene-1,22′-[20]oxa[13]thia[1,14]diazatetracyclo [14.7.2.0~3,6~.0~19,24~]pentacosa[8,16,18,24]tetraen]-15′-one 13′,13′-dioxide], the IC50 in assay [1] (setting [5]) was 111 nM; in assay [2] (setting [6]), 0.037 nM.
`C=C(C)[C@@H](O)C[C@]1(OC)/C=C/C[C@H](C)[C@@H](C)S(=O)(=O)NC(=O)c2ccc3c(c2)N(C[C@@H]2CC[C@H]21)C[C@@]1(CCCc2cc(Cl)ccc21)CO3` [Example 100470, (1S,3′R,6′R,7′S,8′E,11′S,12′R)-6-chloro-7′-((2S)-2-hydroxy-3-methyl-3-buten-1-yl)-7′-methoxy-11′,12′-dimethyl-3,4-dihydro-2H,15′H-spiro[naphthalene-1,22′-[20]oxa[13]thia[1,14]diazatetracyclo [14.7.2.0~3,6~.0~19,24~]pentacosa[8,16,18,24]tetraen]-15′-one 13′,13′-dioxide]: the IC50 in assay [1] (setting [7]) stood at 9650 nM; in assay [2], 0.576 nM.
On to `CO[C@@]1(C[C@@H](O)C2CC2)/C=C/C[C@H](C)[C@@H](C)S(=O)(=O)NC(=O)c2ccc3c(c2)N(C[C@@H]2CC[C@H]21)C[C@@]1(CCCc2cc(Cl)ccc21)CO3` (single isomer, unassigned) [Example 100460], for which the IC50 in assay [1] (setting [5]) turned out to be 433 nM; in assay [2] (setting [6]), 0.095 nM.
For `C[C@@H]1[C@@H](C)CCC[C@]2(CO2)[C@@H]2CC[C@H]2CN2C[C@@]3(CCCc4cc(Cl)ccc43)COc3ccc(cc32)C(=O)NS1(=O)=O` (stereo in doubt) [Example 100164], in that order: 967 nM and 0.917 nM.
Regarding `CO[C@]1(CN2CCN3CCCC[C@@H]3C2)/C=C/C[C@H](C)[C@@H](C)S(=O)(=O)NC(=O)c2ccc3c(n2)N(C[C@@H]2CC[C@H]21)C[C@@]1(CCCc2cc(Cl)ccc21)CO3` [Example 186, (1S,3′R,6′R,7′R,8′E,11′S,12′R)-6-chloro-7′-methoxy-11′,12′-dimethyl-7′-((9aR)-octahydro-2H-pyrido[1,2-a]pyrazin-2-ylmethyl)-3,4-dihydro-2H,15′H-spiro[naphthalene-1,22′-[20]oxa[13]thia[1,14,25]triazatetracyclo [14.7.2.0~3,6~.0~19,24~]pentacosa[8,16,18,24]tetraen]-15′-one 13′,13′-dioxide], the figures for the IC50 in assay [1] (setting [3]) and in assay [2] (setting [4]) were 431 nM and 0.255 nM, respectively.
As to `CO[C@@]1(CN2CCN([C@@H]3CCOC3)CC2)/C=C/C[C@H](C)[C@@H](C)S(=O)(=O)NC(=O)c2ccc3c(c2)N(C[C@@H]2CC[C@H]21)C[C@@]1(CCCc2cc(Cl)ccc21)CO3` (single isomer, unassigned) [Example 286], the IC50 in assay [1] (read-out: OPM-2 10% FBS IC50 IP, OPM-2 cells, 10% FBS, 16 h incubation) was found to be 50 nM; in assay [2] (setting [4]), 0.155 nM.
Turning to `CO[C@@]1(CN2CC(C)(N(C)C)C2)/C=C/C[C@H](C)[C@@H](C)S(=O)(=O)NC(=O)c2ccc3c(c2)N(C[C@@H]2CC[C@H]21)C[C@@]1(CCCc2cc(Cl)ccc21)CO3` [Example 59, (1S,3′R,6′R,7′S,8′E,11′S,12′R)-6-chloro-7′-((3-(dimethylamino)-3-methyl-1-azetidinyl)methyl)-7′-methoxy-11′,12′-dimethyl-3,4-dihydro-2H,15′H-spiro[naphthalene-1,22′-[20]oxa[13]thia[1,14]diazatetracyclo [14.7.2.0~3,6~.0~19,24~]pentacosa[8,16,18,24]tetraen]-15′-one 13′,13′-dioxide], the values for the IC50 in assay [1] (setting [3]) and in assay [2] (setting [4]) were 48 nM and 0.116 nM, respectively.
